Test results: US11399541B2, “Storage-stable microbicidal concentrates and use thereof as preservatives” (Vink Chemicals GmbH & Co. KG, priority 2017, dated 2022)
Marks after values point to notes of the source that are not given here.

Tests used:
Aspergillus brasiliensis = Aspergillus brasiliensis Germ Count Reduction Test; format: cell-based; conditions: use-concentration (0.50% Composition 1; 0.0025% amine; 0.0050% butyl-BIT; 0.50% phenoxyethanol), initial count approx. 10^7 cfu/ml; for semi-quantitative assessment of the microbial growth of the streaks, Contact time [h] 1: contact time 1 h; for semi-quantitative assessment of the microbial growth of the streaks, Contact time [h] 3: contact time 3 h; for semi-quantitative assessment of the microbial growth of the streaks, Contact time [h] 6: contact time 6 h; for semi-quantitative assessment of the microbial growth of the streaks, Contact time [h] 24: contact time 24 h
Experimental: (§1) Dilutions of the samples are prepared with sterile tap water. 25 ml portions of the end solutions are inoculated with 0.1 ml microorganism suspension (initial microorganism count approx. 10^7 cfu/ml) and stirred.
For testing the reduction with Aspergillus brasiliensis the solutions are streaked out onto Sabouraud-dextrose 4% agar after 1, 3, 6 and 24 hours.
(§2) The cultures are incubated for 48 hours at 37° C., except for Aspergillus brasiliensis, which is incubated for 72 hours at 25-27° C. The evaluation is made on the basis of semi-quantitative assessment of the microbial growth of the streaks.

Staphylococcus aureus = Staphylococcus aureus Germ Count Reduction Test; format: cell-based; conditions: use-concentration (0.50% Composition 1; 0.0025% amine; 0.0050% butyl-BIT; 0.50% phenoxyethanol), initial count approx. 10^7 cfu/ml; for semi-quantitative assessment of the microbial growth of the streaks, Contact time [min] 2: contact time 2 min; for semi-quantitative assessment of the microbial growth of the streaks, Contact time [min] 5: contact time 5 min; for semi-quantitative assessment of the microbial growth of the streaks, Contact time [min] 10: contact time 10 min; for semi-quantitative assessment of the microbial growth of the streaks, Contact time [min] 60: contact time 60 min
Experimental: as §1
For the reduction test with Staphylococcus aureus the solutions are streaked out onto tryptone soya agar after 2,5,10 and 60 minutes.
as §2

## CCCCn1sc2ccccc2c1=O [2-butyl-1,2-benzisothiazolin-3-one]
Aspergillus brasiliensis
  semi-quantitative assessment of the microbial growth of the streaks, Contact time [h] 1: ++++ (= massive growth approx. 10^5)
  semi-quantitative assessment of the microbial growth of the streaks, Contact time [h] 3: ++++ (= massive growth approx. 10^5)
  semi-quantitative assessment of the microbial growth of the streaks, Contact time [h] 6: ++++ (= massive growth approx. 10^5)
  semi-quantitative assessment of the microbial growth of the streaks, Contact time [h] 24: ++++ (= massive growth approx. 10^5)
Staphylococcus aureus
  semi-quantitative assessment of the microbial growth of the streaks, Contact time [min] 2: ++++ (= massive growth approx. 10^5)
  semi-quantitative assessment of the microbial growth of the streaks, Contact time [min] 5: ++++ (= massive growth approx. 10^5)
  semi-quantitative assessment of the microbial growth of the streaks, Contact time [min] 10: ++++ (= massive growth approx. 10^5)
  semi-quantitative assessment of the microbial growth of the streaks, Contact time [min] 60: +++ (= heavy growth approx. 10^4)

## CCCCCCCCCCCCN(CCCN)CCCN [N,N bis(3-aminopropyl)-dodecylamine]
Aspergillus brasiliensis
  semi-quantitative assessment of the microbial growth of the streaks, Contact time [h] 1: C (= surface covered approx. 10^6)
  semi-quantitative assessment of the microbial growth of the streaks, Contact time [h] 3: C (= surface covered approx. 10^6)
  semi-quantitative assessment of the microbial growth of the streaks, Contact time [h] 6: ++++ (= massive growth approx. 10^5)
  semi-quantitative assessment of the microbial growth of the streaks, Contact time [h] 24: ++++ (= massive growth approx. 10^5)
Staphylococcus aureus
  semi-quantitative assessment of the microbial growth of the streaks, Contact time [min] 2: +++ (= heavy growth approx. 10^4)
  semi-quantitative assessment of the microbial growth of the streaks, Contact time [min] 5: ++ (= moderate growth approx. 10^3)
  semi-quantitative assessment of the microbial growth of the streaks, Contact time [min] 10: ++ (= moderate growth approx. 10^3)
  semi-quantitative assessment of the microbial growth of the streaks, Contact time [min] 60: − (= no growth <100)
